Measurements published in patent publication US20060084064A1, “Endocan compositions and methods for the treatment of neoplasms” (priority 2003, published 2006).

Key:
endocan mRNA in HUVECs = experiment: Endocan mRNA expression in serum-starved HUVECs (Northern blot); type: cell-based, human; settings: for Inhibition of endocan induction by VEGF / Inhibition of endocan induction by tumor cell-conditioned medium: HUVECs preincubated 30 minutes with 5 μM BIM; for Inhibition of endocan induction by VEGF: 20 μM LY294002, 50 μM PD98059 or 20 μM SU1498 before 6 hour treatment with 20 ng/ml VEGF, FIGS. 3G; for Inhibition of endocan induction by VEGF / Effect of growth factor addition on endocan mRNA: 3I; for Effect of growth factor addition on endocan mRNA: growth factor added to serum-starved HUVECs, FIGS. 3D-3F; for Inhibition of endocan induction by tumor cell-conditioned medium: 20 μM LY294002 or 50 μM PD98059 before 6 hour treatment, FIG. 3H
Procedure: Human non-small lung cancer cells (NCI-H1437, ATCC (American Type Culture Collection) CRL-5872) and rat glioma cells (C6, ATCC CCL-107) were grown in DMEM (Life Technologies Inc., Gaithersburg, Md.) containing 10% FBS (Life Technologies Inc.). Human renal cell carcinoma cells (786-0, ATCC CRL-1932) were maintained in RPMI 1640 (Life Technologies Inc.) containing 10% FBS. HUVECs, human epidermal keratinocytes and human renal tubule epithelial cells were obtained from Clonetics (San Diego, Calif.) and grown in EGM-2-MV, KGM and REGM, respectively (Clonetics). All cells were maintained at 37° C. under 5% CO2 in humidified air. Endothelial cells were grown to 90% confluence, serum-starved overnight in EBM-2 medium containing 0.5% FBS and incubated in the absence or presence of tumor cell-conditioned medium or growth factors at the doses and for the times indicated. Unless otherwise stated, endothelial cells were incubated with 20 ng/ml VEGF for 6 hours. In inhibition studies, serum-starved endothelial cells were preincubated with 5 μM BIM, 20 μM LY294002, 50 μM PD98059, or 20 μM SU1498 for 30 minutes before a 6 hour treatment with tumor conditional medium or VEGF. For neutralization studies, tumor conditional medium or growth factors were preincubated with antibodies for 1 hour at 37° C. and the mixture was then added to serum-starved HUVECs.
Cultured cells and tissues were harvested for total RNA extraction, using the Trizol reagent (Life Technologies). Five μg total RNA from cells or 10 μg RNA from tissues were loaded on a 0.7% formaldehyde-containing agarose gel. The RNA was transferred to nylon membrane, covalently cross-linked by UV radiation, prehybridized for 6 hours, and hybridized for 18 hours at 42° C. with 10^6 cpm/ml [^32P] dCTP-labeled human endocan, mouse endocan, mouse vWF, or mouse VEGF cDNA probe.

Flk-1 kinase = settings: selective inhibitor of Flk-1 kinase, obtained from Calbiochem; cited from earlier work
Flt-1 in HUVECs = settings: VEGF added to HUVECs; Wang et al. 2000; cited from earlier work

| Molecule | Inhibition of endocan induction by VEGF (endocan mRNA in HUVECs) | Effect of growth factor addition on endocan mRNA (endocan mRNA in HUVECs) | Inhibition of endocan induction by tumor cell-conditioned medium (endocan mRNA in HUVECs) | also measured |
| --- | --- | --- | --- | --- |
| CC(C)c1cc(/C=C(\C#N)C(=O)NCCCc2ccccc2)cc(C(C)C)c1O [SU1498] | blocked | – | – | IC50 (Flk-1 kinase): 700 nM |
| VEGF | – | time and dose dependent increase | – | Cell surface expression of Flt-1 (Flt-1 in HUVECs): reduced; Flt-1 mRNA (Flt-1 in HUVECs): increased |
| CN(C)CCCn1cc(C2=C(c3c[nH]c4ccccc34)C(=O)NC2=O)c2ccccc21 [BIM, Bisindolylmaleimide I] | completely inhibited | – | completely inhibited | – |
| COc1cccc(-c2cc(=O)c3ccccc3o2)c1N [PD90985] | – | – | not | – |
| placenta growth factor (PlGF): Recombinant human placenta growth factor purchased from R&D Systems (protein, UniProt P49763 19-221, looked up) Placenta growth factor: LPAVPPQQWALSAGNGSSEVEVVPFQEVWGRSYCRALERLVDVVSEYPSEVEHMFSPSCVSLLRCTGCCGDENLHCVPVETANVTMQLLKIRSGDRPSYVELTFSQHVRCECRHSPGRQSPDMPGDFRADAPSFLPPRRSLPMLFRMEWGCALTGSQSAVWPSSPVPEEIPRMHPGRNGKKQQRKPLREKMKPERCGDAVPRR | – | did not alter | – | – |
